# Experimental data from US20210275518A1, “METHODS OF USING REBASTINIB IN THE TREATMENT OF DISORDERS” (Deciphera Pharmaceuticals, LLC, priority 2020, published 2021).
# Columns and labels:
# Type in all cases: in vivo, human
# [1] = Pharmacokinetics of rebastinib given with paclitaxel (Part 1); details: 50 mg BID and 100 mg BID in combination with paclitaxel
# Description: (§1) This is an open-label Phase 1b/2 multicenter study in patients with advanced or metastatic solid tumors where paclitaxel may be considered appropriate treatment. Rebastinib will be administered in combination with paclitaxel in repeated 28-day cycles to primarily assess the safety, tolerability and preliminary efficacy of the combination. Adverse events (AEs) will be assessed, and laboratory values, vital sign measurements, electrocardiograms (ECGs), ophthalmologic examinations, physical examinations and Eastern Cooperative Oncology Group (ECOG) Performance Status (PS) will be obtained to evaluate the safety and tolerability of rebastinib when administered in combination with paclitaxel. Pharmacokinetic (PK) and pharmacodynamic (PD) samples will be collected at pre-specified time points.
# [2] = tested on: endometrial adenocarcinoma; assay: Phase 1b/2 rebastinib + paclitaxel, Part 2 Cohort 4 (RECIST v1.1)
# Description: (§2) Upon determination of the RP2D, Part 2 is initiated to dose up to 165 evaluable patients using the RP2D across five indication-specific cohorts. A Simon's two-stage design is applied to Part 2 to further evaluate the safety, tolerability, and preliminary efficacy of rebastinib in combination with paclitaxel in triple-negative breast (Cohort 1), inflammatory breast (Cohort 2), ovarian (Cohort 3), endometrial adenocarcinoma (Cohort 4), and gynecologic carcinosarcoma (Cohort 5) cancers. Each cohort initially enrolls up to 18 evaluable patients in the first stage. Patients must receive at least 1 dose of the combination and have 1 post-baseline assessment (including assessment of clinical progression) or be discontinued prior to the postbaseline disease assessment due to an AE at least possibly related to rebastinib, to be considered evaluable. Tumor response is assessed according to Response Evaluation Criteria in Solid Tumors (RECIST) Version 1.1. The decision to enroll patients beyond the first stage is based on response assessments obtained after the first post-dose response assessment of the last patient enrolled in the first stage of a cohort. […] If ≤4 responses are seen in a cohort, the cohort will be terminated. If >4 responses are seen prior to the last evaluable patient in the first stage, expanding the cohort may be triggered earlier. Enrollment in each cohort will pause between the first and second stage of the Simon two-stage for evaluation of response. Patients will receive study treatment until they develop progressive disease, experience unacceptable toxicity, or withdraw consent.
# 21 patients were enrolled and completed at least Cycle 1, Day 1 (C1D1); 18 of which had post baseline measurements. 16 of the patients treated with rebastinib were at a starting dose of 100 mg BID and 80 mg/m^2 weekly paclitaxel, of which the doses of 11 were reduced to 50 mg BID and 80 mg/m^2 weekly paclitaxel, and 5 patients were at a starting dose of 50 mg BID and 80 mg/m^2 weekly paclitaxel. Of the 21 patients who completed at least Cycle 1, Day 1, the median age was 66 years, all received at least 1 prior line of paclitaxel/carboplatin, and 20 (95%) received at least 2 prior anti-cancer therapies. Of the 21 patients who completed at least Cycle 1, Day 1, the median duration of treatment was 16 weeks. Of the 21 patients, 18 were determined to be efficacy evaluable patients (mITT).
# At a third time point, 38 patients with endometrial cancer were enrolled in this portion of the study as a safety population. 16 of the patients treated with rebastinib were at a starting dose of 100 mg BID and 80 mg/m^2 weekly paclitaxel, of which the doses of 11 were reduced to 50 mg BID and 80 mg/m^2 weekly paclitaxel, and 22 patients were at a starting dose of 50 mg BID and 80 mg/m^2 weekly paclitaxel. 33 of the 38 patients met the met the modified intention-to-treat (mITT) criteria.
# [3] = tested on: gynecologic carcinosarcoma; assay: Phase 1b/2 rebastinib + paclitaxel, Part 2 Cohort 5 (RECIST v1.1); details: Cycle 5, Day 1
# Description: as §2, with “Enrollment in each cohort will pause between the first and second stage of the Simon two-stage for evaluation of response. Patients will receive study treatment until they develop progressive disease, experience unacceptable toxicity, or withdraw consent.” left out
# TIE2 = assay: Pharmacodynamics: circulating Ang-2 levels (Part 1); details: with exposure to higher doses of rebastinib in combination with paclitaxel; indicating TIE2 inhibition
# Description: as §1
# [4] = Cohort 4, time point 1, of the eight with stable disease at Cycle 3, Day 1, Cycle 5, Day 1
# [5] = Cohort 4, time point 1, rebastinib + paclitaxel, Cycle 3, Day 1
# [6] = Cohort 4, time point 2, 18 evaluable patients (mITT)
# [7] = Cohort 4, time point 3, of 3 patients who had received Lenvatinib/pembrolizumab
# [8] = Cohort 4, time point 4, 33 evaluable patients
# [9] = Table 2, Cohort 4, time point 3, mITT N = 33, patients (%)
# [10] = Table 2, Cohort 4, time point 3, n 11
compound,measurement,setting,value
CNC(=O)c1cc(Oc2ccc(NC(=O)Nc3cc(C(C)(C)C)nn3-c3ccc4ncccc4c3)c(F)c2)ccn1 [rebastinib],Exposure to rebastinib,[1],dose proportional
same,"Patients with stable disease at Cycle 5, Day 1 and partial response at Cycle 8, Day 1","[2]; Cohort 4, time point 1, of the eight with stable disease at Cycle 3, Day 1",one
same,Patients with partial response,[2]; [4],one
same,Patients with stable disease,[2]; [4],four
same,Patients with partial response,"[2]; Cohort 4, time point 1, of the four with partial response at Cycle 3, Day 1, Cycle 5, Day 1",two
same,Patients with partial response,"[2]; Cohort 4, time point 1, of the four with partial response at Cycle 3, Day 1, both Cycle 5, Day 1 and Cycle 8, Day 1",two
same,Patients with partial response,[2]; [5],four
same,Patients with stable disease,[2]; [5],Eight
same,CBR at 8 weeks,[2]; [6],72%
same,ORR,[2]; [6],39%
same,Stable disease (SD) determinations,[2]; [6],6
same,Partial response (PR) determinations,"[2]; Cohort 4, time point 2, 18 evaluable patients (mITT), rebastinib 100 or 50 mg BID with weekly paclitaxel 80 mg/m^2",7
same,Clinical benefit rate at 16 weeks,"[2]; Cohort 4, time point 3, 33 patients mITT",53%
same,Objective response rate (ORR),"[2]; Cohort 4, time point 3, 33 patients mITT, rebastinib 100 or 50 mg BID with weekly paclitaxel 80 mg/m^2",33%
same,ORR across subgroups,"[2]; Cohort 4, time point 3, FIG. 7, subgroups by age, number of prior regimens, number of prior paclitaxel regimens, histology",consistent
same,Patients with partial response,[2]; [7],2
same,Patients with stable disease,[2]; [7],1
same,Outcome of serious adverse events related (or possibly) to rebastinib,"[2]; Cohort 4, time point 4",resolved after dose interruption
same,Clinical benefit at 8 weeks,[2]; [8],70%
same,Clinical benefit at 16 weeks,[2]; [8],54%
same,Confirmed PRs,[2]; [8],8
same,PRs,[2]; [8],11
same,ORR,"[2]; Cohort 4, time point 4, 33 evaluable patients, rebastinib 100 or 50 mg BID with weekly paclitaxel 80 mg/m^2",33%
same,KM median duration of response,"[2]; Cohort 4, time point 4, 90% CI: 2.7, NE, median follow up 4.4 months",7.4 months
same,Median PFS,"[2]; Cohort 4, time point 4, 90% CI: 3.7, 9.4",6.2 months
same,Best Overall Response: Confirmed Partial Response,[2]; [9],8 (24.2%)
same,Best Overall Response: Not Evaluable: discontinued prior to radiological assessment,[2]; [9],5 (15.2%)
same,Best Overall Response: Partial Response,[2]; [9],11 (33.3%)
same,Best Overall Response: Progressive Disease,[2]; [9],6 (18.2%)
same,Best Overall Response: Single Response Awaiting Confirmation,[2]; [9],1 (3.0%)
same,Best Overall Response: Stable Disease,[2]; [9],11 (33.3%)
same,Best Overall Response: Unconfirmed Single Response,[2]; [9],2 (6.1%)
same,"Duration of Response, Events (%)",[2]; [10],3 (27.3)
same,"Time to Response, Mean (SD)",[2]; [10],3.3 (1.7)
same,"Duration of Response, Kaplan-Meier Median (80% CI)","[2]; Table 2, Cohort 4, time point 3, n 11, NE: Not evaluated","7.4 (7.4, NE)"
same,Patients with partial response,[3],one
same,Mean circulating Ang-2 levels,TIE2,increased
